This passage reports viability, T/C and IC50 results from PubChem BioAssay AID1963433 (Molecular Pharmacology Branch, DTP, NCI, 2024).

The test deals with 772245-204-R-J1-PDC complex spheroid growth. As to the kind of experiment: Anticancer human tumor 772245-204-R-J1-PDC patient-derived rhabdomyosarcoma cell line growth inhibition [Asc]. The note with it: for viability, T/C: stronger effect = lower value. As for the experimental part:
Multicellular complex tumor spheroid response to apoptosis pathway targeting inhibitors Alrizomadlin, Pelcitoclax, and Dasminapant in combination with a variety of drugs and investigational agents in selected tumor cell lines
The MDM2 inhibitor alrizomadlin, the Bcl-2/Bcl-xL inhibitor pelcitoclax, and the IAPs inhibitor dasminapant were evaluated both individually and in combination with standard of care and investigational anticancer small molecules within a complex spheroid model of solid tumors. . Complex spheroids include a stromal component modeled by human endothelial cells (HUVEC) and fibroblasts modeled by human mesenchymal stem cells (MSCs). The concentration ranges selected for each drug and investigational agent were based upon clinically achievable concentrations if the clinical Cmax of the agent was known.
Compounds. The drugs and investigational agents: alrizomadlin (APG-115; NSC831270), pelcitoclax (APG-1252; NSC835773), dasminapant (APG-1387;NSC834197), TAK-243 (NSC785004), copanlisib (NSC809693), olaparib (NSC753686), talazoparib (NSC767125), cobimetinib (NSC 768068), eltanexor (KPT-8602, NSC 794443), abemaciclib (NSC 768073), sotorasib (NSC818433), adagrasib (NSC 831453), MRTX-1133 (NSC 836407), Iadademestat (ORY1001, NSC 806812), and RMC-4630 (NSC839698), were obtained from the NCI Developmental Therapeutics Program Chemical Repository. The FDA-approved anticancer drug set is available from the Developmental Therapeutics Program at https://dtp.cancer.gov/organization/dscb/obtaining/available plates.htm. […] The stock solutions were prepared in dimethyl sulfoxide (DMSO, Sigma-Aldrich, St. Louis, MO, cat. D2650) at 800-fold the tested concentration and stored at -70 degrees C prior to their use. All drugs and investigational agents were tested over a range starting from a high concentration at or near the clinical Cmax and decreasing in half-log increments. If the clinical Cmax for an agent had not been determined, the highest concentration tested was 10 microM.
The patient-derived cancer (PDC) cell lines include five colon adenocarcinomas: 186277-243-T-J2-PDC, 616215-338-R-J1-PDC, 439559-082-T-J2-PDC, 463943-066-T-J2-PDC, and 519858-162-T-J1-PDC; three pancreatic carcinomas: 323965-272-R-J2-PDC, 521955-158-R6-J3-PDC, and 521955-158-R2-J5-PDC; two uterine sarcomas: 327498-152-R-J2-PDC and 993429-296-R-J1-PDC; two rhabdomyosarcomas: 755483-174-R-J1-PDC and 772245-204-R-J1-PDC; two soft tissue sarcomas: 126254-015-R-J1-PDC and 494315-158-R-J1-PDC; two malignant fibrous histiocytomas: 317291-083-R-J1-PDC and 596521-263-R-J1-PDC; two breast carcinomas: 171881-019-R-J1-PDC and 885512-296-R-J2-PDC; and one ovarian carcinoma: 6556581-035-R-J-PDC were obtained from the NCI PDMR, (https://pdmr.cancer.gov). The established cell lines HSSY-2 synovial sarcoma (RRID:CVCL 8719), SYO-1 synovial sarcoma (RRID:CVCL_7146), MPNST malignant peripheral neural sheath tumor were obtained from the Sloan Kettering Institute. The following established cell lines were purchased from the American Type Culture Collection (ATCC, Manassas, VA), Sor the received from the NCI repository:, PANC-1 pancreatic carcinoma (CRL-1469, RRID:CVCL_0480), OVCAR-5 ovarian carcinoma (RRID:CVCL_1628), OVCAR-8 ovarian carcinoma (RRID:CVCL_1629), , MCF-7 breast carcinoma (CRL-12584, RRID:CVCL_0031), MDA-MB-231 breast carcinoma (CRL-12532, RRID:CVCL_0062), NCI-H1876 small cell lung carcinoma (CRL-5902, RRID:CVCL_1503), NCI-H510A small cell lung carcinoma (HTB-184, RRID:CVCL_1565), NCI-H1417 (CRL-5869, RRID:CVCL_1469), and NCI-H196 small cell lung carcinoma (CRL-5823, RRID:CVCL_1509). Dr. Peter Houghton (Greehey Children's Cancer Research Institute, University of Texas Health Science Center, San Antonio, TX) provided Rh-18 rhabdomyosarcoma (RRID:CVCL_1659). Pooled donor human umbilical vein endothelial cells (HUVEC, Lonza, cat. CC-2519) and human mesenchymal stem cells (hMSC, Lonza, cat. PT-2501) were purchased from Lonza (Walkersville, MD).
Cell Culture. […]

Each structure is given as a SMILES string. Several values for one entry are separate records, joined by “and”; a condition that tells them apart may be missing. Identical values can stand only once. Some results are limits rather than exact numbers.
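Further: compound exposure lasted seven days.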
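Wherever viability, T/C is given: 100% = DMSO vehicle control viability.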

As to `C#Cc1c(F)ccc2cc(O)cc(-c3ncc4c(N5CC6CCC(C5)N6)nc(OCC56CCCN5CC(F)C6)nc4c3F)c12` (stereo not drawn), the viability, T/C (as a rule, the result in the treated group divided by that in the control group, in per cent) by setting is: (compound 0.0316 µM) 102% and 92.9% and 100%; (compound 0.1 µM) 101% and 80.2% and 97.7%; (compound 0.316 µM) 93% and 86.2% and 90.3%; (compound 1 µM) 106% and 74.9% and 95.2%; (compound 3.16 µM) 117% and 85.7% and 91.6%; (compound 10 µM) 109% and 66.4% and 75.8%. Moreover, the IC50 (commonly the midpoint of a concentration-inhibition curve) (curve of compound) was above 10000 nM.

For the compound `C=C(F)C(=O)N1CCN(c2nc(OCC3CCCN3C)nc3c2CCN(c2cccc4cccc(Cl)c24)C3)CC1CC#N` (stereo not drawn), the viability, T/C by setting is: (compound 0.0316 µM) 92.1% and 101% and 100%; (compound 0.1 µM) 85.8% and 91.9% and 89.9%; (compound 0.316 µM) 77.3% and 99.5% and 104%; (compound 1 µM) 87.6% and 98.4% and 95.1%; (compound 3.16 µM) 62.3% and 76.7% and 101%. Further, where the note is “curve of compound”, the IC50 was 3970 nM and 4730 nM and 7910 nM.

As for `C=CC(=O)N1CCN(c2nc(=O)n(-c3c(C)ccnc3C(C)C)c3nc(-c4c(O)cccc4F)c(F)cc23)C(C)C1` (stereo not drawn), the viability, T/C was 91.4% and 88.5% and 102% (compound 0.0316 µM); 97.5% and 109% and 89.4% (compound 0.1 µM); 95.3% and 97% and 98% (compound 0.316 µM); 90.4% and 101% and 97.3% (compound 1 µM); 90.9% and 102% and 111% (compound 3.16 µM); 79.6% and 97.6% and 109% (compound 10 µM). Also, for the setting “curve of compound”, the IC50 was above 10000 nM.

With `CCN1C(C(=O)NC23CCC(C(=O)O)(CC2)CC3)C(c2cccc(Cl)c2F)C2(C(=O)Nc3cc(Cl)ccc32)C12CCCCC2` (stereo not drawn), the viability, T/C (compound 0.00949 µM) was 107% and 93.5%. The IC50 was above 3000 nM (compound alone, run of 10/11/2022) and above 3000 nM (curve of compound).

Consider `CCN1CCN(Cc2ccc(Nc3ncc(F)c(-c4cc(F)c5nc(C)n(C(C)C)c5c4)n3)nc2)CC1`, for which the viability, T/C was 90.5% and 99% and 71.9% (compound 0.00316 µM); 88.2% and 90.2% and 79.9% (compound 0.01 µM); 103% and 87.5% and 96.3% (compound 0.0316 µM); 99.7% and 97.4% and 104% (compound 0.1 µM); 100% and 102% and 97% (compound 0.316 µM); 112% and 121% and 102% (compound 1 µM). Further, where the note is “curve of compound”, the IC50 was above 1000 nM.

As to `CNC(C)C(=O)NC1CN(S(=O)(=O)c2cccc(S(=O)(=O)N3CCC4CCC(C(=O)NC(c5ccccc5)c5ccccc5)N4C(=O)C(NC(=O)C(C)NC)C3)c2)CCC2CCC(C(=O)NC(c3ccccc3)c3ccccc3)N2C1=O` (stereo not drawn), the viability, T/C was 94.7% and 94.4% and 79% (compound 0.00316 µM); 93.9% [middle of 14 runs] (compound 0.01 µM). Moreover, the IC50 was above 1000 nM (compound alone, run of 10/24/2022); above 1000 nM (compound alone, run of 11/15/2022); above 1000 nM (curve of compound).

As to `COc1c(OCCCN2CCOCC2)ccc2c3n(c(=NC(=O)c4cnc(N)nc4)nc12)CCN3`, the viability, T/C reads like this: (compound 0.00316 µM) 94.7% and 116% and 107%; (compound 0.01 µM) 91.3% and 98.9% and 106%; (compound 0.0316 µM) 77% and 76.2% and 90.4%; (compound 0.1 µM) 46.1% and 55.2% and 63.9%; (compound 0.316 µM) 41.3% and 42% and 43.8%; (compound 1 µM) 24.4% and 25.4% and 35.3%. Also, the half-inhibitory concentration (IC50) (curve of compound) was 105 nM and 175 nM and 217 nM.

On to `Cc1c(S(C)(=O)=O)c(-c2cc(F)cc(N3CCN(c4ccc(NS(=O)(=O)c5ccc(NC(CCN6CCC(C(=O)OCCCP(=O)(O)O)CC6)CSc6ccccc6)c(S(=O)(=O)C(F)(F)F)c5)cc4)CC3)c2)c(-c2ccc(Cl)cc2)n1C(C)C` (stereo not drawn), for which the viability, T/C is 82.6% [middle of 14 runs] (compound 0.1 µM), 67.3% [middle of 14 runs] (compound 0.316 µM), 53.8% [middle of 14 runs] (compound 1 µM) and 45.4% [middle of 14 runs] (compound 10 µM).

Turning to `Cc1nc(N2CCC3(CC2)COC(C)C3N)c(CO)nc1Sc1ccnc(N)c1Cl` (stereo not drawn), the viability, T/C is 98.8% and 123% and 100% (compound 0.00949 µM); 104% and 119% and 120% (compound 0.03 µM); 112% and 104% and 89.2% (compound 0.0949 µM); 106% and 90.1% and 102% (compound 0.3 µM); 99.9% and 85.1% and 77% (compound 0.949 µM); 91.5% and 57.5% and 54.3% (compound 3 µM). The IC50 (curve of compound) is above 3000 nM.

As for `Cn1ncnc1[C@H]1c2n[nH]c(=O)c3cc(F)cc(c23)N[C@@H]1c1ccc(F)cc1`, the viability, T/C (compound 0.000316 µM) was 84.4% and 103% and 99.8%; the viability, T/C (compound 0.001 µM) was 98% and 95.3% and 90.9%; the viability, T/C (compound 0.00316 µM) is 78.3% and 81.4% and 77%; the viability, T/C (compound 0.01 µM) is 87.9% and 86.6% and 89.3%; the viability, T/C (compound 0.0316 µM) is 69.3% and 101% and 82.6%; the viability, T/C (compound 0.1 µM) is 72.6% and 93.3% and 85.5%. For the same compound, the IC50 (curve of compound) was above 100 nM.

As for `NC(=O)C(=Cn1cnc(-c2cc(C(F)(F)F)cc(C(F)(F)F)c2)n1)c1cncnc1`, the viability, T/C is 92.1% and 79.1% and 89.4% (compound 0.000949 µM); 94.4% and 79.8% and 83.2% (compound 0.003 µM); 89.3% and 86.5% and 108% (compound 0.00949 µM); 69.9% and 55.1% and 101% (compound 0.03 µM); 49.8% and 38% and 82.4% (compound 0.0949 µM); 49.2% and 25.1% and 59.7% (compound 0.3 µM). The IC50 (curve of compound) is 136 nM and 41.3 nM and > 300 nM.

Take `NC1CCC(NC2CC2c2ccccc2)CC1` (stereo not drawn): the viability, T/C was 83.9% and 103% and 99% (compound 0.000316 µM); 81.5% and 83.9% and 100% (compound 0.001 µM); 99% and 87.2% and 107% (compound 0.00316 µM); 83.2% and 87% and 97.1% (compound 0.01 µM); 84.2% and 98.8% and 103% (compound 0.0316 µM); 77.9% and 70.9% and 91.6% (compound 0.1 µM). The concentration for half-maximal inhibition (IC50) (curve of compound) is above 100 nM.

Turning to `O=C(c1cc(Cc2n[nH]c(=O)c3ccccc23)ccc1F)N1CCN(C(=O)C2CC2)CC1`, the viability, T/C is 84.8% and 122% and 103% (compound 0.0316 µM); 109% and 93.1% and 107% (compound 0.1 µM); 92.4% and 70.8% and 81.9% (compound 0.316 µM); 79.6% and 91.7% and 83.5% (compound 1 µM); 80.8% and 88.8% and 89.9% (compound 3.16 µM); 59.2% and 60% and 83.6% (compound 10 µM). Also, the IC50 (curve of compound) is above 10000 nM.

As to `O=C(c1ccc(F)c(F)c1Nc1ccc(I)cc1F)N1CC(O)([C@@H]2CCCCN2)C1`, the viability, T/C (compound 0.00316 µM) was 108% and 99.4% and 97.4%; the viability, T/C (compound 0.01 µM) was 94.5% and 97% and 98.1%; the viability, T/C (compound 0.0316 µM) was 87.7% and 96.5% and 90.6%; the viability, T/C (compound 0.1 µM) was 107% and 102% and 72.1%; the viability, T/C (compound 0.316 µM) is 105% and 107% and 108%; the viability, T/C (compound 1 µM) was 49.5% and 60.2% and 114%. Besides, where the note is “curve of compound”, the IC50 is 990 nM and > 1000 nM.
